Source: patent publication US20180353445A1, “METHODS AND COMPOSITIONS RELATING TO PROTEASOME INHIBITOR RESISTANCE” (Whitehead Institute for Biomedical Research, priority 2017, published 2018)

Columns and labels:
T47D cells = assay: Translation and degradation assays (3H-phenylalanine); format: cell-based, human; conditions: control cells, 20-hour treatment
Experimental: FIGS. 4A-4F: Transient induction of PSMD2 shRNA is sufficient to promote resistance to proteasome inhibition. (FIG. 4A) Schematic representation of the experimental design. (FIG. 4B) T471) cells harboring a doxycycline-inducible PSMD2 shRNA were grown in the presence of in/nil doxycycline for 48 hours. Cells were then collected, washed and plated in the absence of doxycycline for 24 hours prior to exposure to increasing concentrations of bortezomib. Relative cell numbers were measured 3 days later. […] The proteasome complex levels and activity of the 20S proteasome were assessed by native gel electrophoresis. Loading controls were analyzed by immunoblot for PSMD2 and tubulin following SDS-PAGE. […] (FIG. 4E) The rate of degradation was analyzed in cells with reduced levels of PSMD2 (green bars) versus control (red bars) in the presence or absence of 10 nM bortezomib (treatment for 20 hours) by monitoring the release of H3-Phe in pre-labeled cells. (FIG. 4F) Rate of total protein synthesis was determined in cells with reduced levels of PSMD2 (green bars) versus control (red bars) in the presence or absence of 10 nM bortezomib (treatment for 20 hours) by measuring the rate of incorporation of 3H-phenylalanine for 1 hour. **p<0.01***p<0.001 […]

K562 cells = assay: K562 viability and cell proliferation (relative cell number count), incl. FDX1 KO cells; format: cell-based, human; conditions: FDX1-null cell line versus non-targeting control sgRNA
From the text: Despite its use in clinical trials on a limited number of malignancies, the elesclomol mechanism of action remains unclear. We therefore undertook a genetic approach to identify its direct target and to define cellular pathways that modulate the sensitivity of cancer cells to elesclomol-induced toxicity. […] We measured the relative abundance of each sgRNA in the compound-treated K562 cells at the beginning and end of the culture period. For each gene, we calculated its score as the mean log2 fold-change in abundance of all sgRNAs targeting the gene. […]
Viability and cell proliferation assays—Relative cell number count protocol—The viability of K562 cells was conducted by seeding cells at 250,000 cells/mL in 6-well plates of RPMI. […] Viable cell numbers were counted using countess (Invitrogen) every 2-3 days and cells were reseeded at 250,000 cells/mL in 6-well plates of RPMI to continue growth.
The viability of FDX1 KO K562 cells and AAVS1 KO and WT controls was examined by plating 100,000 cells/mL in 6-well cells in RPMI media (without glucose containing dialyzed serum) with either 10 mM glucose or 10 mM galactose. Viable cell numbers were counted every day using countess (Invitrogen).

| Compound | rate of protein degradation (T47D cells) | rate of protein synthesis (T47D cells) | effect of loss of FDX1 protein on sensitivity (K562 cells) |
| --- | --- | --- | --- |
| CC(C)C[C@H](NC(=O)[C@H](Cc1ccccc1)NC(=O)c1cnccn1)B(O)O [bortezomib] | sharply decreased | sharply decreased | – |
| CN(NC(=O)CC(=O)NN(C)C(=S)c1ccccc1)C(=S)c1ccccc1 [elesclomol] | – | – | confers relative resistance |
